Measured values: US11542240B2, “STK19 inhibitors for treatment of cancer” (TRUSTEES OF BOSTON UNIVERSITY, priority 2018, dated 2023)

Assays:
Assay in all cases: biochemical
Assay type in all cases: binding
[1] = biological target: panel of 468 diverse kinases (Homo sapiens, UniProt P53667); conditions: LIMK1; 1000 nM; read-out: Percent Control
[2] = biological target: panel of 468 diverse kinases (Homo sapiens, UniProt Q86V86); conditions: PIM3; 1000 nM; read-out: Percent Control
[3] = biological target: panel of 468 diverse kinases (Homo sapiens, UniProt Q9UPZ9); conditions: ICK; 1000 nM; read-out: Percent Control
[4] = biological target: panel of 468 diverse kinases (Homo sapiens, UniProt Q9BQI3); conditions: EIF2AK1; 1000 nM; read-out: Percent Control
[5] = biological target: panel of 468 diverse kinases (Homo sapiens, UniProt Q13131); conditions: AMPK-alpha1; 1000 nM; read-out: Percent Control
[6] = biological target: panel of 468 diverse kinases (Homo sapiens, UniProt P31749); conditions: AKT1; 1000 nM; read-out: Percent Control
[7] = biological target: panel of 468 diverse kinases (Homo sapiens, UniProt Q8IYT8); conditions: ULK2; 1000 nM; read-out: Percent Control
[8] = biological target: panel of 468 diverse kinases (Homo sapiens, UniProt Q9UIK4); conditions: DAPK2; 1000 nM; read-out: Percent Control
[9] = biological target: panel of 468 diverse kinases (Homo sapiens, UniProt Q8N752); conditions: CSNKIV1L; 1000 nM; read-out: Percent Control
[10] = biological target: panel of 468 diverse kinases (Homo sapiens, UniProt P57059); conditions: SIK; 1000 nM; read-out: Percent Control
[11] = biological target: panel of 468 diverse kinases (Homo sapiens, UniProt Q8NE63); conditions: HIPK4; 1000 nM; read-out: Percent Control
[12] = biological target: panel of 468 diverse kinases (Homo sapiens, UniProt O94806); conditions: PRKD3; 1000 nM; read-out: Percent Control
[13] = biological target: panel of 468 diverse kinases (Homo sapiens, UniProt P49840); conditions: GSK3A; 1000 nM; read-out: Percent Control
[14] = biological target: panel of 468 diverse kinases (Homo sapiens, UniProt Q9P2K8, S808G); conditions: GCN2(Kin.Dom.2, S808G); 1000 nM; read-out: Percent Control
[15] = biological target: panel of 468 diverse kinases (Homo sapiens, UniProt P31152); conditions: ERK4; 1000 nM; read-out: Percent Control
[16] = biological target: panel of 468 diverse kinases (Homo sapiens, UniProt P49841); conditions: GSK3B; 1000 nM; read-out: Percent Control
[17] = biological target: panel of 468 diverse kinases (Homo sapiens, UniProt Q9HBY8); conditions: SGK2; 1000 nM; read-out: Percent Control
[18] = biological target: panel of 468 diverse kinases (Homo sapiens, UniProt Q9Y463); conditions: DYRK1B; 1000 nM; read-out: Percent Control
[19] = biological target: panel of 468 diverse kinases (Homo sapiens, UniProt Q12851); conditions: MAP4K2; 1000 nM; read-out: Percent Control
[20] = biological target: panel of 468 diverse kinases (Homo sapiens, UniProt Q13554); conditions: CAMK2B; 1000 nM; read-out: Percent Control
[21] = biological target: panel of 468 diverse kinases (Homo sapiens, UniProt Q02763); conditions: TIE2; 1000 nM; read-out: Percent Control
[22] = biological target: panel of 468 diverse kinases (Homo sapiens, UniProt P45983); conditions: JNK1; 1000 nM; read-out: Percent Control
[23] = biological target: panel of 468 diverse kinases (Homo sapiens, UniProt P08922); conditions: ROS1; 1000 nM; read-out: Percent Control
[24] = biological target: panel of 468 diverse kinases (Homo sapiens, UniProt Q06187); conditions: BTK; 1000 nM; read-out: Percent Control
[25] = biological target: panel of 468 diverse kinases (Homo sapiens, UniProt Q13233); conditions: MAP3K1; 1000 nM; read-out: Percent Control
[26] = biological target: panel of 468 diverse kinases (Homo sapiens, UniProt P49137); conditions: MAPKAPK2; 1000 nM; read-out: Percent Control
[27] = biological target: panel of 468 diverse kinases (Homo sapiens, UniProt P42336, H1047L); conditions: PIK3CA(H1047L); 1000 nM; read-out: Percent Control
[28] = biological target: panel of 468 diverse kinases (Homo sapiens, UniProt P35916); conditions: FLT4; 1000 nM; read-out: Percent Control
[29] = biological target: panel of 468 diverse kinases (Homo sapiens, UniProt P51451); conditions: BLK; 1000 nM; read-out: Percent Control
[30] = biological target: panel of 468 diverse kinases (Homo sapiens, UniProt Q9UQB9); conditions: AURKC; 1000 nM; read-out: Percent Control
[31] = biological target: panel of 468 diverse kinases (Homo sapiens, UniProt P36896); conditions: ACVR1B; 1000 nM; read-out: Percent Control
panel of 468 diverse kinases (Homo sapiens, UniProt P36896), sequence (P36896 24-505 limits assumed): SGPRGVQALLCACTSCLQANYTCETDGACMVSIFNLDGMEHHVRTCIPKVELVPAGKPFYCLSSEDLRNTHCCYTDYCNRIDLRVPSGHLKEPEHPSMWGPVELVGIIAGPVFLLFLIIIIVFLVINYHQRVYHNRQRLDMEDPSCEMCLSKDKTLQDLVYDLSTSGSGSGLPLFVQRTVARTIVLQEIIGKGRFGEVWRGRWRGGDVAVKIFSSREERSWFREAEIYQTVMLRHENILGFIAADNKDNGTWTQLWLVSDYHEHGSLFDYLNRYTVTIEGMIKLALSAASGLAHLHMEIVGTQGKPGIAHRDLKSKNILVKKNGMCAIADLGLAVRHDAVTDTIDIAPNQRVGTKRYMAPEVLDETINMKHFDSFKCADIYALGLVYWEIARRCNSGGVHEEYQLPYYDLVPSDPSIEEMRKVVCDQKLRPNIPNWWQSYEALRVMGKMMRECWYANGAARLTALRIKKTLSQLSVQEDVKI

panel of 468 diverse kinases (Homo sapiens, UniProt Q06187), sequence (Q06187 2-659 limits assumed): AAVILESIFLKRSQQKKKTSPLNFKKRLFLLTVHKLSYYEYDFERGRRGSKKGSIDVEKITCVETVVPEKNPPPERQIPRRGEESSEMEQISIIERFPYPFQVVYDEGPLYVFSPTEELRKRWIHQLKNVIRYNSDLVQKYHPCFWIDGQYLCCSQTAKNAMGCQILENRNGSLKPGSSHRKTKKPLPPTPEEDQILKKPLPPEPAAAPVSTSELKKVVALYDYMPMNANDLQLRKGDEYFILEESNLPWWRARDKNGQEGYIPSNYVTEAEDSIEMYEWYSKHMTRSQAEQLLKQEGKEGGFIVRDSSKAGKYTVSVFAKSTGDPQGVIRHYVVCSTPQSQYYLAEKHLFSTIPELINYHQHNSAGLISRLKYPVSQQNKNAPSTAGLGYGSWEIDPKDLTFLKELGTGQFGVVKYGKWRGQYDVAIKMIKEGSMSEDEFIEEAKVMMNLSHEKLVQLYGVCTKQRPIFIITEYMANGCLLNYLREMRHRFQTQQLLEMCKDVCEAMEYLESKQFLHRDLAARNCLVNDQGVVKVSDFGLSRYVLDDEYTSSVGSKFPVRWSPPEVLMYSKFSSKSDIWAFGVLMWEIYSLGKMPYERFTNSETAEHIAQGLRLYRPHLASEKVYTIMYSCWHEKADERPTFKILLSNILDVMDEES
panel of 468 diverse kinases (Homo sapiens, UniProt Q02763), sequence (Q02763 23-1124 limits assumed): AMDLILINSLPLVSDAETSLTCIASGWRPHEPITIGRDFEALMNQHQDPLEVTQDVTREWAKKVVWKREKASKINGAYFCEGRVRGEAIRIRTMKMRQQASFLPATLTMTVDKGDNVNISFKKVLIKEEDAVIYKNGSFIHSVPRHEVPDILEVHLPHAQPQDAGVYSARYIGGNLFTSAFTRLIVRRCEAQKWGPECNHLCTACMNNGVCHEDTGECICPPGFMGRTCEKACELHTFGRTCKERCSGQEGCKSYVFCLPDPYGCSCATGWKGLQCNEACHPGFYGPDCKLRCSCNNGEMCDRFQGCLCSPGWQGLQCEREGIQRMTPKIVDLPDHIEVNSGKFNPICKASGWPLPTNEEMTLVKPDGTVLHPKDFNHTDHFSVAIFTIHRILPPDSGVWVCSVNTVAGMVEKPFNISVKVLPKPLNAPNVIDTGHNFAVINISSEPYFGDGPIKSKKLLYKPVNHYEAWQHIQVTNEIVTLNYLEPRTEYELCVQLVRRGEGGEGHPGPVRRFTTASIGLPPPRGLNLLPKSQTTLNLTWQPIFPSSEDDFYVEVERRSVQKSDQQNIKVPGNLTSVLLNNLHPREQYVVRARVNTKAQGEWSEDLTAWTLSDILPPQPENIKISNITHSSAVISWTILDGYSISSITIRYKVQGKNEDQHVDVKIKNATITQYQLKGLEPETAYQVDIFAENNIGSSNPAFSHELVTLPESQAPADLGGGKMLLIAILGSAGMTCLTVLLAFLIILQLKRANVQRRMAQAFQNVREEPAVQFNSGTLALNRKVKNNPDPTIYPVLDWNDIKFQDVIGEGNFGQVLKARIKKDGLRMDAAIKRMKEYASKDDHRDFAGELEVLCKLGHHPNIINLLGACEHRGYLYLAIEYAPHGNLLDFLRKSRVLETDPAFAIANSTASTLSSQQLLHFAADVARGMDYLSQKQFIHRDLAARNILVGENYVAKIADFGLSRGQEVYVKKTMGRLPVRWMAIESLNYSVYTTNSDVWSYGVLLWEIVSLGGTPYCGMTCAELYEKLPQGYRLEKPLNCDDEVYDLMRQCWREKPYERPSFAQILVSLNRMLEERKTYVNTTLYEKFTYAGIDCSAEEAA
panel of 468 diverse kinases (Homo sapiens, UniProt P49840), sequence (P49840 2-483 limits assumed): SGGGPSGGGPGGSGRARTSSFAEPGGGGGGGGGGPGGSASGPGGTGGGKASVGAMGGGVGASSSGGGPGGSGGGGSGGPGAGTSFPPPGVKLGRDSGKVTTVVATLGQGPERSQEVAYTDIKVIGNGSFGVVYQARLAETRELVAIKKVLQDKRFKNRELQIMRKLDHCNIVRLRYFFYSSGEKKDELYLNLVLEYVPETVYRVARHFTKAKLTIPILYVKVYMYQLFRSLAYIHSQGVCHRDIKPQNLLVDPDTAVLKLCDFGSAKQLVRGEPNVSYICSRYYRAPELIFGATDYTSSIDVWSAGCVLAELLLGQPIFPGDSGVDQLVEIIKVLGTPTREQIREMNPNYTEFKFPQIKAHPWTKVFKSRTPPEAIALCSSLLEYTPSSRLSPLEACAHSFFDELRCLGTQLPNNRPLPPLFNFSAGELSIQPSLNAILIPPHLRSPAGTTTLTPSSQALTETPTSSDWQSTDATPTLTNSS
panel of 468 diverse kinases (Homo sapiens, UniProt P51451), sequence (P51451 2-505 limits assumed): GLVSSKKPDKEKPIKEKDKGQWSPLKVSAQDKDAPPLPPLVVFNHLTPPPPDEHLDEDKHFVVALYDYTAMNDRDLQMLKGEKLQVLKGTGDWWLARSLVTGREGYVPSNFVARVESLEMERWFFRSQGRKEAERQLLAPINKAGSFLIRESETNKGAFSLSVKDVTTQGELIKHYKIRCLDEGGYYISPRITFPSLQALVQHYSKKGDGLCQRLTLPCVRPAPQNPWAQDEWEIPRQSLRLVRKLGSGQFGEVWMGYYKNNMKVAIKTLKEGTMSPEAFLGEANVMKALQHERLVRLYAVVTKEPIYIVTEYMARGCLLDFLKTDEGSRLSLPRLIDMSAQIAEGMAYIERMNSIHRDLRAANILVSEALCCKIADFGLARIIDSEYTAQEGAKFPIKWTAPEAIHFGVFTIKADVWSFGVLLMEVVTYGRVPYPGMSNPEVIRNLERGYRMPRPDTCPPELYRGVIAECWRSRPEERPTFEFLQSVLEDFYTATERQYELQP
panel of 468 diverse kinases (Homo sapiens, UniProt Q13233), sequence (Q13233 2-1512 limits assumed): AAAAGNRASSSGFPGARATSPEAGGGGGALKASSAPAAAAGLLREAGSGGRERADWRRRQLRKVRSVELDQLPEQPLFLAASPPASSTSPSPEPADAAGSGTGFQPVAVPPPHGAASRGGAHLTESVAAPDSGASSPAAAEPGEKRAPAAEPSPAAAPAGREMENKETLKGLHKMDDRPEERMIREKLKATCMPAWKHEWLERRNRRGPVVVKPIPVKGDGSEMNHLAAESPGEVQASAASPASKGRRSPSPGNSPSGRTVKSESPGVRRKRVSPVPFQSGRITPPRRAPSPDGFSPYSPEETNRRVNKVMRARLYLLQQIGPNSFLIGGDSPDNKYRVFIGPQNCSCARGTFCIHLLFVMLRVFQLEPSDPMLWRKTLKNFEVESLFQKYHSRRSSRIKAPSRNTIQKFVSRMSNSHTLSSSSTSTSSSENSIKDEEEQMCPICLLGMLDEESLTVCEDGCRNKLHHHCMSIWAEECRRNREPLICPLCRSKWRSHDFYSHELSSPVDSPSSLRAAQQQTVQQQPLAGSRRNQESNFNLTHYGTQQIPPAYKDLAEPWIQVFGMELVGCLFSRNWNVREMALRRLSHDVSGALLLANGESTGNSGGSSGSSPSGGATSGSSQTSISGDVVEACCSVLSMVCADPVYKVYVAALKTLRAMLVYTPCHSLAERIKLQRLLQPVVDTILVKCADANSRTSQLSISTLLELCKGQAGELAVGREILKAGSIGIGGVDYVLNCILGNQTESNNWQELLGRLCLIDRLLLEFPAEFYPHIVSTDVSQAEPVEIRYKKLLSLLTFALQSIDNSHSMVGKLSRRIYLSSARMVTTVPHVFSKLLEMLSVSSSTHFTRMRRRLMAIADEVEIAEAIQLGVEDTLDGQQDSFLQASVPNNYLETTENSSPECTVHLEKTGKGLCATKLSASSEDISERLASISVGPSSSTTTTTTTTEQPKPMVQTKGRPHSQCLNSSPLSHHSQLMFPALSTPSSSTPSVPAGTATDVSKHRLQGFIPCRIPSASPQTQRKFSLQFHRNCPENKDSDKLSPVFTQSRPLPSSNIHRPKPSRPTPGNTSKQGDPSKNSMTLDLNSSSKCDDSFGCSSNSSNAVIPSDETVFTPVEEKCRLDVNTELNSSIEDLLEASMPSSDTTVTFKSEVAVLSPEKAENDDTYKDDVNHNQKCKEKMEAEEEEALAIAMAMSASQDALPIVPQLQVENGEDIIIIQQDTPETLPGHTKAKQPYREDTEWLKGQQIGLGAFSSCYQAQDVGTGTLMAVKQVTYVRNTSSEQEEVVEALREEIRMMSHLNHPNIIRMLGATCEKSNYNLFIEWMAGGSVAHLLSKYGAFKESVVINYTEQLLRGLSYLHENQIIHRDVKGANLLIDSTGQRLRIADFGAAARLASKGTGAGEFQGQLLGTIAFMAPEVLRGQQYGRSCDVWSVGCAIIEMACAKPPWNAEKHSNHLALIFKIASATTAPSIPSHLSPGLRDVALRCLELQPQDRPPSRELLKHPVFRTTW

Compound: COc1cc2nc(NC3CC3)nc(NC3CCN(C(C)C)CC3)c2cc1OC [Formula IV]
- remaining activity at 1 µM [1]: 100%
- remaining activity at 1 µM [2]: 85%
- remaining activity at 1 µM [3]: 100%
- remaining activity at 1 µM [4]: 73%
- remaining activity at 1 µM [5]: 92%
- remaining activity at 1 µM [6]: 95%
- remaining activity at 1 µM [7]: 59%
- remaining activity at 1 µM [8]: 93%
- remaining activity at 1 µM [9]: 99%
- remaining activity at 1 µM [10]: 81%
- remaining activity at 1 µM [11]: 91%
- remaining activity at 1 µM [12]: 91%
- remaining activity at 1 µM [13]: 95%
- remaining activity at 1 µM [14]: 94%
- remaining activity at 1 µM [15]: 91%
- remaining activity at 1 µM [16]: 72%
- remaining activity at 1 µM [17]: 64%
- remaining activity at 1 µM [18]: 86%
- remaining activity at 1 µM [19]: 87%
- remaining activity at 1 µM [20]: 91%
- remaining activity at 1 µM [21]: 100%
- remaining activity at 1 µM [22]: 52%
- remaining activity at 1 µM [23]: 90%
- remaining activity at 1 µM [24]: 89%
- remaining activity at 1 µM [25]: 54%
- remaining activity at 1 µM [26]: 100%
- remaining activity at 1 µM [27]: 90%
- remaining activity at 1 µM [28]: 80%
- remaining activity at 1 µM [29]: 100%
- remaining activity at 1 µM [30]: 100%
- remaining activity at 1 µM [31]: 94%
